Source: patent publication US9381193B2, “Contraceptive methods and compositions” (WASHINGTON UNIVERSITY, priority 2011, dated 2016)

Columns and labels:
ESC-T cells = experiment: EdU incorporation proliferation assay; type: cell-based, human
Source text: Other groups have shown that DHEA has anti-proliferative effects in a number of cell-lines and tissues. Thus, it was hypothesized that perhaps the PPP inhibitors prevent the proliferation of ESC-Ts and that this is an additional effect, independent of their role in decidualization inhibition. In a human uterus the stromal cells go through a cyclical oscillation between proliferation and differentiation, determined by the hormonal milieu. ESC-Ts in vitro remain in the proliferative state until they are exposed to differentiation media, which causes the cells to halt cell division and enter differentiation. Proliferation of ESC-T cells were monitored by EdU incorporation in vitro, which indicates entry into the S-phase of the cell cycle, in the absence of the differentiation hormones.
Following 60 hr of the treatment indicated in the experiment, EdU was added to the culture medium at a concentration of […]. Cells were harvested and stained using the Click-iT EdU Flow Cytometry Kit (Invitrogen). Quantitative data were collected using a BD FACSCalibur flow cytometer (Becton Dickinson, San Jose, Calif.) and analyzed with FlowJo software (TreeSTar, Inc., Ashland, Oreg.). For confocal microscopy, the cells were stained on coverslips using the same protocol. Nuclei were counterstained with TOPRO-iodide (Molecular probes) at a 1:500 dilution. Cells were mounted on slides using Vectashield (Vector Labs) and visualized using a Nikon C1 microscope.

FVB/NJ mice = experiment: Ovarian histology and follicle counts in DHEA-fed mice; type: in vivo, mouse; conditions: 0.6% DHEA diet
Source text: Female FVB/NJ mice were obtained from Jackson Laboratories (Bar Harbor, Me., USA). Regular rodent chow was supplemented with DHEA at 0.01%, 0.1% and 0.6% w/w. Three-week-old mice had access to food and water ad libitum. Mice were fed control or DHEA-supplemented chow for two weeks. The Animal Studies Committee at Washington University School of Medicine reviewed and approved all animal experiments. Animals were maintained according to the Guide for the Care and Use of Laboratory Animals provided by the Institute for Laboratory Animal Research.
For histological evaluation, one ovary from five mice in each group was fixed in Bouin's solution, transferred to 70% ethanol then embedded in paraffin and serial sectioned at 10 microns. Every tenth section was kept and stained with hematoxylin and eosin. Follicles with visible nuclei were classified as primordial, primary, secondary or antral. Corpora lutea were also counted. Follicle counts from each classification were summed for each mouse.

For `C[C@]12CC[C@H](O)CC1=CC[C@@H]1[C@@H]2CC[C@]2(C)C(=O)CC[C@@H]12` [DHEA, dehydroepiandrosterone], the “EdU-positive nuclei vs DMSO control” value (ESC-T cells; 100 μM DHEA, 50 μM 6AN) was “drastic decrease”, the “Proliferation by EdU geometric mean fluorescence intensity (flow cytometry)” value (ESC-T cells; 4 independent experiments) was “decreases proliferation of ESC-Ts in a concentration dependent manner” and the Ovarian morphology (FVB/NJ mice) was “large cystic structures”.
